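Protocol summary: plate cells (96-well), add compound at 5 concentrations, incubate 48 h, interpolate endpoints linearly. GI50: concentration for 50% inhibition of growth. TGI: concentration producing complete growth inhibition.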
Key:
Test in all cases: NCI-60 cell line screen, 48 h
IGROV1 ovarian = test system: IGROV1 ovarian
SR leukemia = test system: SR leukemia
HL-60(TB) leukemia = test system: HL-60(TB) leukemia
OVCAR-8 ovarian = test system: OVCAR-8 ovarian
SF-295 CNS = test system: SF-295 CNS
A498 renal = test system: A498 renal
U251 CNS = test system: U251 CNS
HCC-2998 colon = test system: HCC-2998 colon
BT-549 breast = test system: BT-549 breast
MDA-MB-435 = test system: MDA-MB-435

SMILES	TGI (IGROV1 ovarian)	TGI (SR leukemia)	TGI (HL-60(TB) leukemia)	TGI (OVCAR-8 ovarian)	TGI (SF-295 CNS)	TGI (A498 renal)	TGI (U251 CNS)	TGI (HCC-2998 colon)	GI50 (BT-549 breast)	TGI (BT-549 breast)	GI50 (IGROV1 ovarian)	GI50 (MDA-MB-435)	TGI (MDA-MB-435)	GI50 (HL-60(TB) leukemia)	GI50 (OVCAR-8 ovarian)	GI50 (SF-295 CNS)	GI50 (A498 renal)	GI50 (U251 CNS)	GI50 (HCC-2998 colon)
OCCCc1cnco1	> 100 µM	> 100 µM	> 100 µM	> 100 µM	> 100 µM	> 100 µM	> 100 µM	> 100 µM	–	–	–	–	–	–	–	–	–	–	–
CC(=O)Oc1c(Br)ccc2cc(C(Br)Br)c(C(=O)c3ccccc3)nc12	76.5 µM	74.2 µM	–	53 µM	35.1 µM	–	36.3 µM	32.6 µM	–	–	–	–	–	–	–	–	–	–	–
CC(=O)SC(SC(C)=O)SC(C)=O	> 100 µM	–	> 100 µM	> 100 µM	–	> 100 µM	> 100 µM	> 100 µM	–	–	–	–	–	–	–	–	–	–	–
Fc1ccc(C2SCc3nc4ccccc4n32)cc1F (configuration not stated)	> 100 µM	–	26.2 µM	> 100 µM	> 100 µM	> 100 µM	> 100 µM	> 100 µM	–	–	–	–	–	–	–	–	–	–	–
COc1cc2c3c(n(CCCN4CCCNCC4)c(=O)c2cc1OC)-c1cc2c(cc1C3=O)OCO2	21.5 µM	–	0.976 µM	4.22 µM	2.66 µM	13.5 µM	2.91 µM	9.45 µM	2.2 µM	11.5 µM	1.15 µM	2.58 µM	13.7 µM	0.147 µM	0.466 µM	0.2 µM	1.16 µM	0.181 µM	3.07 µM
O=[N+]([O-])c1ccc(/C(Cl)=C/c2ccc(/C=C(\Cl)c3ccc([N+](=O)[O-])cc3[N+](=O)[O-])cc2)c([N+](=O)[O-])c1	> 100 µM	> 100 µM	> 100 µM	> 100 µM	> 100 µM	> 100 µM	> 100 µM	> 100 µM	–	–	–	–	–	–	–	–	–	–	–
c1ccc(-c2cn(-c3ccccc3)c(-c3ccccc3)n2)cc1	25.2 µM	–	17.9 µM	20.4 µM	28.4 µM	28.8 µM	15.9 µM	20.6 µM	16 µM	30.5 µM	11.9 µM	7.58 µM	24.7 µM	3.07 µM	7.89 µM	12.9 µM	15.4 µM	4.08 µM	7.82 µM
CCCCN(CCCC)CC(C(=O)Nc1ccc([N+](=O)[O-])cc1[N+](=O)[O-])/C(C)=N\NC(=O)C[N+](C)(C)C (configuration not stated)	> 100 µM	49.7 µM	> 100 µM	> 100 µM	> 100 µM	> 100 µM	> 100 µM	> 100 µM	–	–	–	–	–	–	–	–	–	–	–
NC(=S)N/N=C(\CCC(=O)Nc1ccccc1[N+](=O)[O-])CC(=O)c1ccco1	> 100 µM	> 100 µM	> 100 µM	> 100 µM	> 100 µM	> 100 µM	> 100 µM	> 100 µM	–	–	–	–	–	–	–	–	–	–	–
NC(CO)c1ccc(OCc2ccccc2)cc1 (configuration not stated)	> 100 µM	81.5 µM	> 100 µM	> 100 µM	> 100 µM	> 100 µM	> 100 µM	> 100 µM	–	–	–	–	–	–	–	–	–	–	–
CCC1c2cc3n(c(=O)c2COC1O)Cc1c-3nc2ccccc2c1Cl (configuration not stated)	> 100 µM	–	> 100 µM	> 100 µM	> 100 µM	> 100 µM	> 100 µM	> 100 µM	–	–	–	–	–	–	–	–	–	–	–

Source: PubChem BioAssay (NCI)
